Counter-ions that a name gives are not always drawn. Like-named read-outs stand apart in the source and are kept apart here.
Experiments:
[1] = system: mature stage V gametocytes (NF54 strain); assay: microbe, parasite or virus in culture; type: cell-based, Plasmodium falciparum; conditions: for outcome of primary screen (hit definition): 1.11 µM
Procedure: (§1) Screening was conducted as previously described. Briefly, mature stage V gametocytes (NF54 strain) were cultured in vitro, then exposed to the explored compounds and filtered thereafter through layers of microspheres (microsphiltration)[25],[28]. Stiffening activity was determined by comparing gametocytemia up and downstream from the microsphere layers after filtration of drug-exposed gametocytes in 384-well plates using a vacuum manifold. Gametocytemia was assessed using DNA (Sybr Green) and erythrocyte membrane (CellMask) staining. Killing effect was assessed by MitoTracker staining. We screened two small libraries, specifically the Pathogen Box from the Medicine for Malaria Venture and the Kinase Inhibitors Box from GSK (400 and 350 compounds, respectively, Fig. 1A, B), and furthermore the larger ReFrame repurposing library (12,805 compounds, Fig. 1C).
(§2) The Pathogen Box library (400 compounds, provided by MMV-Medicine for Malaria Ventures, Geneva, Switzerland), the Kinase Inhibitors Box library (350 compounds, provided by GSK-Glaxo SmithKline DDW Unit, Tres Cantos, Spain), and the ReFrame library (12,805 compounds provided by the California Institute for Biomedical Research-Calibr, La Jolla, CA, USA) were used according to the providers’ instructions. DMSO-solubilized compounds (10 mM stock concentration) were loaded in 384-well plates (Seahorse, cat. no. 201035−100). Two columns were left empty for the controls. For each compound, 5 nL were pre-spotted in a single well to reach a final concentration of 1.11 μM. The final volume for each well was 45 μl. Controls were prepared as follows: 22.5 nL of DMSO were loaded in 16 wells as negative controls (0.05% final concentration); 22.5 nL of NITD609 (provided by MMV, Geneva, Switzerland) 1 mM were loaded in 8 wells (0.5 μM final concentration), 17 nL of Calyculin A (Sigma, cat. no. C5552) […] were loaded in 6 wells (75 nM final concentration) and 225 nL of Gentian Violet (MolPort, cat. no. 002-133-551) 10 mM were loaded in the remaining 2 wells (50 μM final concentration). Plates were prepared in triplicate for the Pathogen Box and sextuplicate for the Kinase Inhibitors Box.
(§3) Plasmodium falciparum NF54 strain parasites (used for screening campaign) were cultured at 4% hematocrit in RBCs from informed blood donors (blood group A) as previously described. Parasites were taken from the -80 °C freezer, then rapidly melt for 1 minute in a 37 °C water bath. A saline solution was gently added to avoid the lysis. Firstly, NaCl dissolved at 12% in distilled water (1/5 of the volume measured in the cryovial) and then NaCl dissolved at 1.6% (9 times the cryovial’s volume). After that, fresh RBCs were added to allow parasites re-growth. Infected RBCs were kept in RPMI medium (Sigma-Aldrich, cat. no. R4130), supplemented with 10% of decomplemented human serum, hypoxanthine 50 mg/l (Sigma-Aldrich, cat. no. H9636). Biobank of Castilla y Leon and Centro de Transfusiones de Madrid as providers of human red blood cell concentrates. The production of gametocytes was induced from a 0.5% ring-stage parasitemia (day 0). Medium was changed daily to induce gametocytes differentiation, as previously described. At day 17, gametocytes were concentrated using a density gradient medium (NycoPrep 1.077, Progen cat. no. 1114550)[27]. Parasitemia was adjusted by FACS (SYBR-Green and MitoTracker double staining, 3–5% targeted). Hematocrit was adjusted to 0.5% by adding fresh RBCs and controlled by manual counting in a Neubauer chamber (Celeromics, cat. no. 717810). Finally, the gametocyte suspension was poured (45 μL/well) into the compound-containing 384-well microplate, then incubated 24 hours both for the screening campaign and the dose-response analysis. Both asexual and sexual stages were cultivated in RPMI 1640 supplemented with 25 mM HEPES, 50 mg/L hypoxanthine, 50 μg/mL gentami-cin, 10% pooled heat-inactivated human serum (A^+).

[2] = Hit scoring on safety in human subjects and pharmacokinetics; conditions: for Score (PK): peak plasma concentration vs IC50
Excerpt: Hits from the ReFrame library were further selected based on safety, preferably oral administration (high score if oral), and potential availability for widespread use.

[3] = system: mature stage V gametocytes (NF54 strain); assay: High-throughput screening: killing effect by MitoTracker staining, primary screening at 1.11 µM and dose-response analysis; type: cell-based, Plasmodium falciparum; conditions: for IC50: stage V gametocytes NF54, 24 h, dose-response analysis, N/A = not active in dose-response analysis, read-out: Killing IC50
Procedure: as §1, §2, §3

[4] = stage V gametocytes NF54, 24 h, dose-response analysis, N/A = not active in dose-response analysis, read-out: Stiffening IC50 (retention)
[5] = Plasmodium falciparum, NF54, 24 h, read-out: Stiffening IC50 (retention)
[6] = Plasmodium falciparum, NF54, 24 h

Compound | IC50 [1, 4] [nM] | IC50 [3] [nM] | IC50 [1, 5] [nM] | IC50 [3, 6] [nM] | other results
CC(O)C(=O)O.Cc1[nH]c2ccccc2c1CCNCc1ccc(/C=C/C(=O)NO)cc1 [Panobinostat lactate] | 220 | 300 |  |  | Score (safety) [2]: 0; Score (PK) [2]: 0
COc1cccc(CC(=O)N2CCC(n3c(C)nc4ccc(F)cc43)CC2)c1 [MMV020081] | 1470 | 29300 |  |  | 
COc1ccc(-c2ccc3ncc4c(c3c2)n(-c2ccc(N3CCNCC3)c(C(F)(F)F)c2)c(=O)n4C)cn1 [NVP-BGT226] |  |  | 1600 | 13 | Score (safety) [2]: 0; Score (PK) [2]: 2 (Peak plasma concentration between 1/3 IC50 and IC50 (Score = 2))
COCCn1c2c([n+](Cc3cnccn3)c1C)C(=O)c1ccccc1C2=O [Sepantronium bromide] |  |  | 1890 | 1350 | 
CN(C)c1ccc2c(c1)Sc1cc(N(C)C)ccc1N2 [Leuco methylthioninium salt] |  | 23200 |  |  | Score (safety) [2]: 0; Score (PK) [2]: 0
CC[C@@H](C(=O)O)[C@@H]1O[C@@H]([C@@H](C)[C@H](O)[C@H](C)C(=O)[C@H](CC)[C@H]2O[C@]3(C=C[C@@H](O)[C@]4(CC[C@@](C)([C@H]5CC[C@](O)(CC)[C@H](C)O5)O4)O3)[C@H](C)C[C@@H]2C)[C@@H](C)C[C@@H]1C [Narasin] |  |  | 43000 |  | IC50 ([3]; Plasmodium falciparum): 46000 nM
CCCCCCCCN=c1ccn(CCCCCCCCCCn2ccc(=NCCCCCCCC)cc2)cc1 [Octenidine] |  |  | 1820 | 1250 | 
Cn1cc(CNCC2CCN(c3ncc(C(=O)NO)cn3)CC2)c2ccccc21 [Quisinostat] |  |  | 3500 | 5200 | Score (safety) [2]: 0; Score (PK) [2]: 0
COC1=C(OC)C(=O)C(CCCCCCCCCC[P+](c2ccccc2)(c2ccccc2)c2ccccc2)=C(C)C1=O [Mitoquinone mesylate] |  |  | 12100 | 11700 | Score (safety) ([2]; human): 3; Score (PK) [2]: 1 (Peak plasma concentration lower than 1/3 IC50 (Score = 1))
Cl[TeH]1(Cl)(Cl)OCCO1 [Ammonium trichlorotellurate] |  |  | 2200 | 13700 | 
CNCc1ccc(-c2cc(-c3nc(-c4ccc(S(=O)(=O)C(C)C)cc4)cnc3N)on2)cc1 [VE-822] |  |  | 9500 | 710 | 
CC[n+]1c(/C=C/c2ccc(N3CCCC3)cc2)cccc1/C=C/c1ccc(N2CCCC2)cc1.[I-] [Stilbazium iodide] | 1570 | 8740 |  |  | Score (safety) [2]: 0; Score (PK) [2]: 0
Eseroline | 2300 | 1560 |  |  | 
CC(C)(C)NCc1ccc(Nc2ccnc3cc(Cl)ccc23)cc1O [N-tert-butylisoquine] |  |  | 9450 | 9550 | Score (safety) [2]: 0; Score (PK) [2]: 0
CCCN1CCCC(c2ccc(Nc3nc(Nc4cc(F)ccc4C(N)=O)c4cc[nH]c4n3)c(OC)c2)C1 (stereo not shown) [GSK1173862A] |  |  | 345 | 2400 | 
CC(=O)OC[C@H]1O[C@@H]([S-])[C@H](OC(C)=O)[C@@H](OC(C)=O)[C@@H]1OC(C)=O.CCP(CC)CC.[Au+] [Auranofin] | 3500 | 2580 |  |  | Score (safety) [2]: 0; Score (PK) [2]: 0
Gramicidin | 70 | 8 |  |  | killing IC50 in words ([3]; gametocytes): low nanomolar range
CC(C)NC(=N)NC(=N)Nc1ccc(Cl)c(Cl)c1.Cl [Chlorproguanil hydrochloride] | 10400 |  |  |  | Score (safety) [2]: 0; Score (PK) [2]: 1 (Peak plasma concentration lower than 1/3 IC50 (Score = 1))

Compound | IC50 [1, 4] [nM] | IC50 [3] [nM] | IC50 [1, 5] [nM] | IC50 [3, 6] [nM] | other results
CCCCCCCCCCCCCC[n+]1ccc(C)cc1 [Myristyl-gamma picolinium chloride] | 7200 | 4150 |  |  | 
C[CH2][Hg][S]c1ccccc1C(=O)[O-].[Na+] [Thimerosal] | 930 | 1500 |  |  | 
[O-][n+]1ccccc1SSc1cccc[n+]1[O-] [Bispyrithione] |  |  | 2350 |  | IC50 ([3]; Plasmodium falciparum): 920 nM
CN(C)c1ccc2nc3ccc(=[N+](C)C)cc-3sc2c1 [Methylthioninium chloride] |  |  |  | 4850 | IC50 ([1]; Plasmodium falciparum, NF54, 24 h, read-out: Stiffening IC50 (retention), stage V gametocytes NF54, 24 h, dose-response analysis, N/A = not active in dose-response analysis): 2800 nM
CN1CC(=O)N2[C@H](c3ccc4c(c3)OCO4)c3[nH]c4ccccc4c3C[C@@H]2C1=O [tadalafil] |  |  |  |  | outcome of primary screen (hit definition) [1]: not captured by the primary screen
C/C=C1\NC(=O)[C@H]2CSSCC/C=C/[C@H](CC(=O)N[C@H](C(C)C)C(=O)N2)OC(=O)[C@H](C(C)C)NC1=O [Romidepsin] |  |  | 5000 |  | IC50 ([3]; Plasmodium falciparum): 20000 nM
CC[C@H]1/C=C/C=C/C[C@@H](C)[C@H](O)[C@@](C)(O)C(=O)[C@@H](C)[C@H](O)[C@@H](C)C(=O)[C@@H](C)[C@H](O)[C@@H](C)/C=C/C(=O)O[C@@H]2[C@H](C)[C@H](CC1)O[C@@]1(O[C@@H](C[C@@H](C)O)[C@@H](C)CC1=O)[C@H]2C [Oligomycin B] | 1550 | 5800 |  |  | 
Bismuth ethanedithiol | 1500 | 1300 |  |  | 
Oligomycin A |  |  |  |  | IC50 ([1]; read-out: Stiffening IC50 (retention), stage V gametocytes NF54, 24 h, dose-response analysis, N/A = not active in dose-response analysis): 500 nM
O=C([O-])[C@H]([O-])[C@@H]([O-])C(=O)[O-].O=C([O-])[C@H]([O-])[C@@H]([O-])C(=O)[O-].[K+].[K+].[Sb+3].[Sb+3] [Potassium antimonyl tartrate] | 10700 | 3630 |  |  | 
CCCc1nn(C)c2c(=O)[nH]c(-c3cc(S(=O)(=O)N4CCN(C)CC4)ccc3OCC)nc12 [sildenafil] |  |  |  |  | outcome of primary screen (hit definition) [1]: not captured by the primary screen
C[C@]12CCC(=NOCCN)C[C@@H]1C(=O)C[C@@H]1[C@@H]2CC[C@]2(C)C(=O)CC[C@@H]12 [Istaroxime] |  |  | 170 |  | 
CC(C)C[C@H](NC(=O)[C@H](Cc1ccccc1)NC(=O)c1cnccn1)B(O)O [Bortezomib] |  |  |  |  | IC50 ([3]; Plasmodium falciparum): 2060 nM
CCCN1CCC(c2ccc(Nc3nc(Nc4cc(F)ccc4C(N)=O)c4cc[nH]c4n3)c(OC)c2)CC1 [GSK1326255A] |  |  | 480 | 8400 | 
CCCCN(CCCC)c1ccc2nc3ccc(=[N+](CCCC)CCCC)cc-3sc2c1 [PPA904] | 5050 | 2420 |  |  | 
COc1cc(N2CCN(C(C)C)CC2)ccc1Nc1nc(Nc2ccc(F)cc2C(N)=O)c2cc[nH]c2n1 [GSK1220512A] |  |  | 2320 | 17000 | 
CCCC1(CCC)CCC2(CCN(CCCN(CC)CC)C2)CC1.O=C(O)/C=C\C(=O)O.O=C(O)/C=C\C(=O)O [Atiprimod dimaleate] |  | 6670 |  |  | Score (safety) [2]: 0; Score (PK) [2]: 0
COC(=O)[C@@]12OC[C@]34[C@H]([C@@H](O)[C@@H]1O)[C@@]1(C)CC(=O)C(O)=C(C)[C@@H]1C[C@H]3OC(=O)[C@H](OC(=O)/C=C(\C)C(C)C)[C@@H]24 [Bruceantin] |  |  | 20 |  | IC50 ([3]; Plasmodium falciparum): 160 nM

— PMC10082216 (Nature Communications, 2023)
